Consider one molecule from US20110245091A1, “REACTION PROGRESS ASSAY FOR SCREENING BIOLOGICAL ACTIVITY OF ENZYMES” (priority 2010, published 2011).

The target of the test is T1, HIV-I reverse transcriptase (Human immunodeficiency virus type 1 group M subtype B, UniProt P04585).
T1 construct: HIV-I RNA-dependent DNA polymerase (reverse transcriptase); purchased Worthington LS05006
The test can be described thus: Reaction progress luminescence assay of cDNA synthesis by HIV-I reverse transcriptase (luciferase detection of dATP). In kind it is biochemical. On the procedure:
The reaction was set by adding: 16 µL of RNAse-free water; 2 µL of 10× reaction buffer (400 mM Tris-HCl, 60 mM MgCl2, 100 mM Dithiothreitol, 20 mM spermidine, pH 7.9 @ 25° C.); 2 µL of template, polyuridylic acid at 1 µg/µL (Midland Certified Reagent Company, Cat. No. P-3004); 2 µL of primer poly(A)18 at 0.5 µg/µL (Polydeoxyadenylate, 18 base long purchased from Integrated DNA technologies); 20 µM of dATP; 3 U of HIV-I (Worthington, Cat. No. LS05006); 3 µL of ATP detection solution prepared by diluting luciferase (EC 1.13.12.7) at 3 µg/mL in 0.1M Tris-acetate pH 7.7, 2 mM EDTA, 10 mM magnesium acetate, 0.1% BSA, 1 mM dithiothreitol, 0.4 mg/mL PVP, and 0.4 mM D-luciferin. A 5 µL of reaction solution has been added to a well of 384-well plate and the luminescence intensity vs. time was recorded on Orion II microplate luminometer at 25° C. (Berthold detection Systems (Pforzheim, Germany)). A first derivative, ∂l(t)l∂t, for the luminescence intensity has been calculated. The derivative was calculated by selecting a group of three or more consecutive measurements of the luminescence intensity and calculating by a least square method the “instant” slope of the luminescent intensity which said slope represents the first derivative of the luminescence at the time when the respective measurements were made. […]

By Ki is commonly meant a dissociation constant, usually derived from enzyme kinetics or from competition with a known ligand.

For the molecule `C[C@H](Cn1cnc2c(N)ncnc21)OCP(=O)(O)O` [MT-4S], the “mechanism of inhibition (crossing of trend lines)” value (MT-4S at 1.2 nM and 3.7 nM) was “non-competitive”. The inhibition constant (Ki) (inhibitor at 0, 1.2 and 3.7 nM, 20 μM dATP, 25° C., read-out: inhibition constant Ki) came out at 0.9 ± 0.15 nM.
